How the values were obtained:
[1] = Plasma pharmacokinetics of KRT-derived compounds in rats given oral KRT (LC-MS/MS, with or without β-glucuronidase treatment of plasma)
Procedure: To specifically deconjugate glucuronides, 80 μL of plasma sample was incubated with 50 μL of β-glucuronidase solution containing 200 units/mL β-glucuronidase from Escherichia coli (Sigma-Aldrich) for 2 h at 37 °C. The deconjugation reaction was stopped by adding ethyl acetate or by refrigerating the mixture considering the following procedures. This pretreated solution was injected into the two liquid chromatography–mass spectrometry with tandem mass spectrometry (LC-MS/MS) systems after pooling with an internal standard solution of niflumic acid (Sigma-Aldrich) or atropine (Wako Pure Chemical Industries, Osaka, Japan).
For quantification of apigenin, wogonin, wogonoside, hesperetin, naringenin, liquiritigenin, genistein, and luteolin in β-glucuronidase-naive (untreated) plasma, 200 µL plasma samples were pretreated by liquid-liquid extraction using ethyl acetate. The total supernatant was collected, dried, and concentrated using a centrifugal evaporator. The dried residue was then dissolved in 60 μL of the specific HPLC mobile phase used for each analytical method, and a 10 or 20 μL volume injected into the LC-MS/MS system.
For quantification of baicalin, baicalein, and berberine in untreated plasma, 80 µL of plasma was pretreated by solid-phase extraction using Oasis HLB 96-well µElution plate (Waters, Milford, MA, USA). The methanol eluates were collected, dried, and dissolved in 60 μL of the specific HPLC mobile phase. A 10 or 20 μL volume was then injected into the LC-MS/MS system.
For quantification of glycyrrhizic acid and glycyrrhetinic acid in untreated plasma, 100 µL plasma samples were pretreated by deproteinization using methanol. The supernatant was collected, dried, and concentrated using a centrifugal evaporator. The dried residue was then dissolved in 60 μL of the specific HPLC mobile phase used for the analytical method, and a 10 μL volume injected into the LC-MS/MS system.
For quantification of wogonin, wogonoside, hesperetin, naringenin, liquiritigenin, and genistein in treated plasma, the reaction solutions after deconjugation reactions were pretreated by liquid-liquid extraction. The supernatant was dissolved in 120 μL of the specific HPLC mobile phase, and a 10 or 15 μL volume injected into the LC-MS/MS system.
For quantification of apigenin, luteolin, baicalin, baicalein, and berberine in treated plasma, the reaction solutions after deconjugation were pretreated by solid-phase extraction by the method described above, and 10 or 15 μL of the solution dissolved in 50 μL of the specific HPLC mobile phase was injected into the LC-MS/MS system.
Pharmacokinetic parameters of flavonoids and glucuronide metabolites in KRT-administrated plasma with or without β-glucuronidase treatment were analyzed by noncompartmental modeling using Phoenix WinNonlin (version 6.3, Certara L.P., St. Louis, MO, USA) to determine various pharmacokinetic constants, including Cmax, tmax, t1/2, and AUC0–last. The t1/2 was […] loge2/ke, where ke is the terminal elimination rate constant determined from at least three data points on the descending linear limb.

RAW264.7 cells = assay: Macrophage culture assay: phagocytosis of FITC-conjugated S. aureus; type: cell-based, mouse; conditions: for Phagocytosis relative change versus control / Phagocytosis MFI: IFN-γ 0.5 ng/mL; for Phagocytosis MFI: mean ± SEM of triplicates
Procedure: Cells of the mouse macrophage cell line RAW264.7 (ATCC, Manassas, VA, USA) were grown in Dulbecco’s modified Eagles medium supplemented with 10% fetal bovine serum (FBS), 4.5 g/L glucose, 2 mmol/L L-glutamine, 100 U/mL penicillin, 100 µg/mL streptomycin, and 10 mmol/L HEPES. […] After 3 days’ incubation at 37 °C, culture fluids were removed and replaced by warm medium containing 30 μg/mL FITC-conjugated S. aureus. After 30 min incubation in a 5% CO2 incubator, cells were harvested using cold PBS containing 2 mmol/L EDTA, washed, and fixed for 15 min at 4 °C with phosphate buffer containing 4% paraformaldehyde (pH 7.4). FITC-positive cells were determined using a FACSaria II flow cytometer and DIVA 8.0.1 software (Becton Dickinson, San Jose, CA, USA). Phagocytic activity is expressed as the mean fluorescence intensity (MFI) from individual cells.

β-glucuronidase = biological target: T1, β-glucuronidase (Mus musculus, UniProt P12265); assay: Conversion assay of baicalin to baicalein by macrophages, macrophage lysate and skin homogenate; type: in vitro ADME; conditions: baicalin 10 μmol/L; 24 h incubation; living macrophages (RAW264.7), also lysates of macrophages and skin
T1 construct: endogenous in cells; host or cells: RAW264.7 cells (live or lysate); alternatively back-skin homogenate supernatant of naive mice (tissue)
T1 sequence (P12265 23-648): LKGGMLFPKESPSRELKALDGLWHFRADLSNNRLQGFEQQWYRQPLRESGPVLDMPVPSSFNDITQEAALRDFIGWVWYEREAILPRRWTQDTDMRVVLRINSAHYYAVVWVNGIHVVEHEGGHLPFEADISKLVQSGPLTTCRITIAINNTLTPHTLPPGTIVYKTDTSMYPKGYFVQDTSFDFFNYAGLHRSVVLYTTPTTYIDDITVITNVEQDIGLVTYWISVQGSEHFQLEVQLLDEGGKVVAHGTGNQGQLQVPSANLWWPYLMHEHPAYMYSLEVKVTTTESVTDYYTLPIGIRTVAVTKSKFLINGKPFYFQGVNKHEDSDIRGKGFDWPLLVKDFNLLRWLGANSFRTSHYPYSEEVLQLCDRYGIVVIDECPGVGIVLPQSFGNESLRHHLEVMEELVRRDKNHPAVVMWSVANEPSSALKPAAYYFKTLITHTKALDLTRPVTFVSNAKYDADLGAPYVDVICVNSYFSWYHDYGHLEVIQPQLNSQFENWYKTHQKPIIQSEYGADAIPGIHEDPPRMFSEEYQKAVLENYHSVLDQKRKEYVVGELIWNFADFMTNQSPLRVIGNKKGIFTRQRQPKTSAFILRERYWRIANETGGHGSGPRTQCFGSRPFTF
Procedure: Naïve mice were sacrificed by exsanguination to obtain skin samples from the back. After shaving with an electric razor, the skin was excised and homogenized in cold PBS at 20 mg/mL. After centrifugation at 10,000× g for 20 min at 4 °C, supernatants were harvested and stored at −80 °C until use.
To examine β-glucuronidase activity in skin tissue, baicalin (final 10 μmol/L) was added as a substrate to skin homogenate in 24-well plates. Alternatively, to examine β-glucuronidase activity in macrophages, baicalin (final 10 μmol/L) was added to live RAW264.7 cells seeded at 1 × 10^5 cells/0.5 mL/well or to cell lysates in 24-well plates. After 24 h incubation in a 5% CO2 incubator, supernatants were harvested and stored at −80 °C until measurement of baicalin and baicalein by LC-MS/MS as described above.

[2] = Sprague-Dawley, rat, in vivo, po, 2 g/kg
[3] = Exp. 2, 1 μmol/L, control 226 ± 12
[4] = Exp. 2, 3 μmol/L, control 226 ± 12
[5] = Exp. 2, 10 μmol/L, control 226 ± 12
[6] = Sprague-Dawley, rat, plasma, po, 2 g/kg
[7] = Exp. 1, 10 μmol/L, 3 days, control 155 ± 4
[8] = Sprague-Dawley, rat, in vivo, po

| Compound | AUC(0-t) [1, 2] [ng·h/mL] | Cmax [1, 2] [ng/mL] | Tmax [1, 2] [h] | phagocytosis by macrophages (result in words) (RAW264.7 cells; 10 μmol/L) | Tmax [1, 6] [h] | Phagocytosis relative change versus control (RAW264.7 cells; Exp. 1, 10 μmol/L) | Phagocytosis MFI (RAW264.7 cells; [7]) | further results |
| --- | --- | --- | --- | --- | --- | --- | --- | --- |
| O=C(O)[C@H]1O[C@@H](Oc2cc3oc(-c4ccccc4)cc(=O)c3c(O)c2O)[C@H](O)[C@@H](O)[C@@H]1O [baicalin, baicalein 7-O-glucuronide] | 10100 | 1020 | 4 | promoted | – | – | – | half-life [1, 2]: 3.53 h; Phagocytosis relative change versus control (RAW264.7 cells; Exp. 2, 1 μmol/L): 1.1; Phagocytosis MFI (RAW264.7 cells; [3]): 238 ± 9; Phagocytosis relative change versus control (RAW264.7 cells; Exp. 2, 3 μmol/L): 1.2; Phagocytosis MFI (RAW264.7 cells; [4]): 269 ± 10; Phagocytosis relative change versus control (RAW264.7 cells; Exp. 2, 10 μmol/L): 2.4; Phagocytosis MFI (RAW264.7 cells; [5]): 531 ± 19; deconjugation of baicalin to aglycone baicalein (β-glucuronidase): almost completely deconjugated to baicalein |
| CC1(C)[C@@H](O[C@H]2O[C@H](C(=O)O)[C@@H](O)[C@H](O)[C@H]2O[C@@H]2O[C@H](C(=O)O)[C@@H](O)[C@H](O)[C@H]2O)CC[C@]2(C)[C@H]3C(=O)C=C4[C@@H]5C[C@@](C)(C(=O)O)CC[C@]5(C)CC[C@@]4(C)[C@]3(C)CC[C@@H]12 [Glycyrrhizic acid, glycyrrhizic acid] | – | – | – | – | 1 | – | – | Cmax [1, 6]: 2.88 ng/mL |
| O=c1cc(-c2ccccc2)oc2cc(O)c(O)c(O)c12 [Baicalein, baicalein] | – | – | – | enhanced | – | 3.4 | 530 ± 6 | Cmax ([1]; Sprague-Dawley, rat, plasma, oral, 2 g/kg): 1320 ng/mL; Cmax ([1]; rat plasma, no β-glucuronidase treatment, KRT 2 g/kg oral, BQL for baicalein = 125 ng/mL): BQL ^#; Cmax ([1]; rat plasma, no β-glucuronidase treatment, KRT 2 g/kg oral, BQL for baicalein = 125 ng/mL, listed as baicalein): BQL; Phagocytosis relative change versus control (RAW264.7 cells; Exp. 2, 1 μmol/L): 1.0; Phagocytosis MFI (RAW264.7 cells; [3]): 223 ± 10; Phagocytosis relative change versus control (RAW264.7 cells; Exp. 2, 3 μmol/L): 2.0; Phagocytosis MFI (RAW264.7 cells; [4]): 445 ± 7; Phagocytosis relative change versus control (RAW264.7 cells; Exp. 2, 10 μmol/L): 3.8; Phagocytosis MFI (RAW264.7 cells; [5]): 866 ± 25 |
| O=C1C[C@@H](c2ccc(O)cc2)Oc2cc(O)cc(O)c21 [Naringenin, naringenin] | 9.53 | 1.34 | 4 | enhanced | – | 1.5 | 236 ± 10 | half-life [1, 2]: 3.01 h |
| COc1c(O[C@@H]2O[C@H](C(=O)O)[C@@H](O)[C@H](O)[C@H]2O)cc(O)c2c(=O)cc(-c3ccccc3)oc12 [wogonoside, wogonin 7-O-glucuronide] | – | – | – | – | 6 | – | – | AUC(0-t) [1, 6]: 3400 ng·h/mL |
| O=C1C[C@@H](c2ccc(O)cc2)Oc2cc(O)ccc21 [Liquiritigenin, liquiritigenin] | – | – | – | enhanced | 4 | 1.6 | 245 ± 4 | AUC(0-t) [1, 6]: 8.68 ng·h/mL; Cmax [1, 6]: 2.11 ng/mL |
| O=c1c(-c2ccc(O)cc2)coc2cc(O)cc(O)c12 [Genistein, genistein] | 9.65 | 0.998 | 24 | enhanced | – | 3.4 | 525 ± 22 | plasma concentration ([1]; β-glucuronidase-treated plasma until 6 h after KRT administration, detected at 10 and 24 h): below the detection limit |
| O=c1cc(-c2ccc(O)cc2)oc2cc(O)cc(O)c12 [Apigenin, apigenin] | 0.843 | 0.14 | 4 | enhanced | – | 3.3 | 507 ± 11 | Tmax [1, 8]: 10.0 h |
| COc1ccc([C@@H]2CC(=O)c3c(O)cc(O)cc3O2)cc1O [Hesperetin, hesperetin] | – | – | – | did not | 4 | 1.2 | 193 ± 12 | AUC(0-t) [1, 6]: 2.83 ng·h/mL; Cmax [1, 6]: 0.644 ng/mL |
| COc1c(O)cc(O)c2c(=O)cc(-c3ccccc3)oc12 [Wogonin, wogonin] | 71.5 | 16.3 | 4 | enhanced | – | 1.7 | 271 ± 16 | – |
| O=c1cc(-c2ccc(O)c(O)c2)oc2cc(O)cc(O)c12 [Luteolin, luteolin] | 21.3 | 4.7 | 6 | enhanced | – | 2.6 | 408 ± 22 | Tmax [1, 8]: 1.00 h; t1/2 [1, 8]: 11.7 h |
